According to PMC5732813, “Novel piplartine-containing ruthenium complexes: synthesis, cell growth inhibition, apoptosis induction and ROS production on HCT116 cells” (Oncotarget, 2017):
Several values for one entry are separate records, joined by “and”; a condition that tells them apart may be missing. Equal entries are not always repeated. Where two headings read alike, the source gives them in different places.

What was measured:
[1] = tested on: HepG2 (human hepatocellular carcinoma); assay: Cytotoxic activity, alamar blue assay, HepG2; type: cell-based; conditions: for more potent than metal-free piplartine: HepG2, IC50 72h
From the text: (§1) HCT116 (human colon carcinoma), HepG2 (human hepatocellular carcinoma), HSC-3 (human oral squamous cell carcinoma), SCC-4 (human oral squamous cell carcinoma), SCC-9 (human oral squamous cell carcinoma), HL-60 (human promyelocytic leukemia), K-562 (human chronic myelogenous leukemia), B16-F10 (murine melanoma), MRC-5 (human lung fibroblast), WT SV40 MEF (wild-type immortalized mouse embryonic fibroblast) and BAD KO SV40 MEF (BAD gene knockout immortalized mouse embryonic fibroblast) cell lines were obtained from the American Type Culture Collection (ATCC, Manassas, VA, USA) and cultured in RPMI-1640 medium (Gibco-BRL, Gaithersburg, MD, USA) with 10% fetal bovine serum (Life, Carlsbad, CA, USA), 2 mM L-glutamine (Vetec Química Fina, Duque de Caxias, RJ, Brazil) and 50 μg/mL gentamycin (Life, Carlsbad, CA, USA). Adherent cells were collected by treatment with 0.25% trypsin EDTA solution (Gibco-BRL, Gaithersburg, MD, USA). All cell lines were cultured in flasks at 37°C in 5% CO2 and sub-cultured every 3-4 days to maintain exponential growth.
(§2) Cell viability was quantified using the alamar blue assay, according to Ahmed et al.. Cells were inserted in 96-well plates for all experiments (7 x 10^4 cells/mL for adherent cells or 3 x 10^5 cells/mL for suspended cells in 100 μL of medium). […] Negative controls received the vehicle that was used for diluting the compounds tested.

[2] = tested on: HSC-3 (human oral squamous cell carcinoma); assay: Cytotoxic activity, alamar blue assay, HSC-3; type: cell-based; conditions: for more potent than metal-free piplartine: HSC3, IC50 72h
From the text: as §1, §2

[3] = tested on: SCC-4 (human oral squamous cell carcinoma); assay: Cytotoxic activity, alamar blue assay, SCC-4; type: cell-based; conditions: for more potent than metal-free piplartine: SCC4, IC50 72h
From the text: as §1, §2

[4] = tested on: SCC-9 (human oral squamous cell carcinoma); assay: Cytotoxic activity, alamar blue assay, SCC-9; type: cell-based; conditions: for more potent than metal-free piplartine: SCC9, IC50 72h
From the text: as §1, §2

[5] = tested on: K-562 (human chronic myelogenous leukemia); assay: Cytotoxic activity, alamar blue assay, K-562; type: cell-based; conditions: for more potent than metal-free piplartine: K562, IC50 72h
From the text: as §1, §2

[6] = tested on: B16-F10 (murine melanoma); assay: Cytotoxic activity, alamar blue assay, B16-F10; type: cell-based; conditions: for more potent than metal-free piplartine: B16-F10, IC50 72h
From the text: as §1, §2

[7] = tested on: cancer multicellular spheroids formed from HCT116 cells; assay: 3D multicellular spheroids culture, alamar blue assay; type: cell-based, human; conditions: for more potent than metal-free piplartine: 3D spheroids of HCT116, IC50 72 h
Method: as §2
HCT116 cells were cultivated in 3D multicellular spheroids. Briefly, 100 μL of a solution of cells (0.5 x 10^6 cells/mL) were inserted in 96-well plate with a cell-repellent surface (Greiner Bio-One, Kremsmünster, Austria) and cultured in RPMI 1640 medium with 10% fetal bovine serum, 2 mM glutamine, 3% matrigel (BD Biosciences, San Jose, CA, EUA) and 50 μg/mL gentamycin at 37°C with 5% CO2. […] Negative control received the vehicle that was used for diluting the compounds tested. In the end of the experiment, morphological changes were examined by light microscopy (Olympus BX41, Tokyo, Japan) using Image-Pro software (Media Cybernetics, Inc. Silver Spring, USA) and the cell viability was determined by alamar blue assay as described above.

[8] = tested on: BAD KO SV40 MEF (BAD gene knockout immortalized mouse embryonic fibroblast); assay: Cytotoxic activity, alamar blue assay, BAD KO SV40 MEF; type: cell-based
From the text: as §1, §2

[9] = tested on: WT SV40 MEF (wild-type immortalized mouse embryonic fibroblast); assay: Cytotoxic activity, alamar blue assay, WT SV40 MEF; type: cell-based
From the text: as §1, §2

HCT116 cells = assay: Internucleosomal DNA fragmentation and cell cycle distribution (DNA content, flow cytometry); type: cell-based, human
Method: Cells were harvested in a permeabilization solution containing 0.1% triton X-100 (Sigma Chemical Co. St Louis, MO, USA), 2 μg/mL propidium iodide (Sigma Chemical Co. St Louis, MO, USA), 0.1% sodium citrate and 100 μg/mL RNAse (Sigma Chemical Co. St Louis, MO, USA) and incubated in the dark for 15 min at room temperature.

[10] = HCT116, 10 μM, 24h, mean ± S.E.M.
[11] = HCT116, 10 μM, 48h, mean ± S.E.M.
[12] = HCT116, 1 μM, 24h, mean ± S.E.M.
[13] = HCT116, 1 μM, 48h, mean ± S.E.M.
[14] = 3D spheroids of HCT116, 72 h treatment, alamar blue, read-out: IC50
[15] = BAD KO SV40 MEF, 72 h incubation, alamar blue, read-out: IC50
[16] = WT SV40 MEF, 72 h incubation, alamar blue, read-out: IC50

| Compound | Selectivity index (SI) ([1]; SI = IC50[MRC-5]/IC50[HepG2]) | Selectivity index (SI) ([1]; SI = IC50[PBMC]/IC50[HepG2]) | Selectivity index (SI) ([2]; SI = IC50[MRC-5]/IC50[HSC-3]) | Selectivity index (SI) ([2]; SI = IC50[PBMC]/IC50[HSC-3]) | Selectivity index (SI) ([3]; SI = IC50[MRC-5]/IC50[SCC-4]) | Selectivity index (SI) ([3]; SI = IC50[PBMC]/IC50[SCC-4]) | Selectivity index (SI) ([4]; SI = IC50[MRC-5]/IC50[SCC-9]) | Selectivity index (SI) ([4]; SI = IC50[PBMC]/IC50[SCC-9]) | Selectivity index (SI) ([5]; SI = IC50[MRC-5]/IC50[K-562]) | Selectivity index (SI) ([5]; SI = IC50[PBMC]/IC50[K-562]) | Selectivity index (SI) ([6]; SI = IC50[MRC-5]/IC50[B16-F10]) | Selectivity index (SI) ([6]; SI = IC50[PBMC]/IC50[B16-F10]) | more potent than metal-free piplartine [1] [fold] | more potent than metal-free piplartine [2] [fold] | more potent than metal-free piplartine [3] [fold] | more potent than metal-free piplartine [4] [fold] | more potent than metal-free piplartine [5] [fold] | more potent than metal-free piplartine [6] [fold] | IC50 [7, 14] [µM] | more potent than metal-free piplartine [7] | further results |
| --- | --- | --- | --- | --- | --- | --- | --- | --- | --- | --- | --- | --- | --- | --- | --- | --- | --- | --- | --- | --- | --- |
| COc1cc(/C=C/C(=O)N2CCC=CC2=O)cc(OC)c1OC [Piplartine] | 2.7 | 5.4 | 2.3 | 4.6 | 1.1 | 2.2 | 1.0 | 2.1 | 0.9 | 1.8 | 1.6 | 3.2 | – | – | – | – | – | – | – | – | IC50 ([1]; Homo sapiens, HepG2, 72 h): 6.3 µM; IC50 ([5]; Homo sapiens, K562, 72 h): 18.6 µM; IC50 ([7]; Homo sapiens, HCT-116, 72 h): 22.1 µM; IC50 ([8]; Mus musculus, Fibroblast, 72 h): 4 µM; IC50 ([9]; Mus musculus, Fibroblast, 72 h): 4.5 µM; DNA content (%) G0/G1 (HCT116 cells; [10]): 22.7 ± 0.6%; DNA content (%) G2/M (HCT116 cells; [10]): 21.5 ± 2.9%; DNA content (%) S (HCT116 cells; [10]): 21.4 ± 2.3%; DNA content (%) Sub-G0/G1 (HCT116 cells; [10]): 20.3%; DNA content (%) Sub-G0/G1 (HCT116 cells; HCT116, 10 μM, 24h, mean ± S.E.M., listed as PL): 20.3 ± 1.8 %; DNA content (%) G0/G1 (HCT116 cells; [11]): 27.0 ± 2.9 %; DNA content (%) G2/M (HCT116 cells; [11]): 21.9 ± 0.9%; DNA content (%) S (HCT116 cells; [11]): 16.4 ± 2.2%; DNA content (%) Sub-G0/G1 (HCT116 cells; [11]): 33.9%; DNA content (%) Sub-G0/G1 (HCT116 cells; HCT116, 10 μM, 48h, mean ± S.E.M., listed as PL): 33.9 ± 5.8 % |
| COc1cccc2c1C(=O)c1c(O)c3c(c(O)c1C2=O)C[C@@](O)(C(=O)CO)C[C@@H]3O[C@H]1C[C@H](N)[C@H](O)[C@H](C)O1 [Doxorubicin] | – | – | – | – | – | – | – | – | – | – | – | – | – | – | – | – | – | – | – | – | IC50 ([4]; Homo sapiens, SCC-9, 72h of incubation, alamar blue, with 95% confidence interval): 2.6 µM; IC50 ([6]; Mus musculus, B16-F10, 72h of incubation, alamar blue, with 95% confidence interval): 0.02 µM; IC50 ([7]; Homo sapiens, HCT-116, 3D spheroids of HCT116, 72 h treatment, alamar blue, read-out: IC50): 6.3 µM; IC50 ([8]; Mus musculus, Fibroblast, BAD KO SV40 MEF, 72 h incubation, alamar blue, read-out: IC50): 0.41 µM; IC50 ([9]; Mus musculus, Fibroblast, WT SV40 MEF, 72 h incubation, alamar blue, read-out: IC50): 0.04 µM; DNA content (%) G0/G1 (HCT116 cells; [12]): 22.1 ± 2.4%; DNA content (%) G2/M (HCT116 cells; [12]): 59.0 ± 2.8 %; DNA content (%) Sub-G0/G1 (HCT116 cells; [12]): 5.2 ± 1.4%; DNA content (%) G0/G1 (HCT116 cells; [13]): 15.8 ± 2.0 %; DNA content (%) G2/M (HCT116 cells; [13]): 49.0 ± 5.9 %; DNA content (%) Sub-G0/G1 (HCT116 cells; [13]): 21.8 ± 5.4 % |
| [Ru(piplartine)(dppb)(bipy)](PF6)2 [Complex 2] | – | – | – | – | – | – | – | – | – | – | – | – | 3 | 6 | 3 | 2 | 3 | 3 | 8.3 | ~2 fold | IC50 [8, 15]: 4 µM; IC50 [9, 16]: 6 µM; DNA content (%) S (HCT116 cells): 18.7 ± 1.8% and 15.6 ± 1.8% and 21.2 ± 2.6% and 18.0 ± 1.3% |
| [Ru(piplartine)(dppf)(bipy)](PF6)2 [Complex 1] | 2.0 | 1.1 | 5.7 | 3.0 | 1.1 | 0.6 | 0.8 | 0.4 | 1.0 | 0.5 | 1.2 | 0.6 | 4 | 12 | 5 | 4 | 5 | 4 | 7.3 | approximately 3 fold | IC50 [8, 15]: 3.2 µM; IC50 [9, 16]: 2.4 µM; DNA content (%) G0/G1 (HCT116 cells): 28.6 ± 5.9% and 39.4 ± 1.8% and 30.0 ± 5.8 % and 42.5 ± 1.7%; DNA content (%) S (HCT116 cells): 11.5 ± 2.5% and 20.1 ± 1.4% and 13.5 ± 1.5% and 21.9 ± 2.5% |
